Reference: ChEMBL document CHEMBL1201862, “PubChem BioAssay data set” (2004)
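Briefly, cells in 96-well plates were exposed to five compound concentrations for 48 h, and endpoints were estimated by linear interpolation. GI50 marks 50% less growth.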 Calls of active or inactive are those of the source. Cut-off read from the data, not from the text of the source: active = GI50 up to about 1.1 µM and inactive = higher.

Assays:
Experiment in all cases: NCI-60 cell line screen, 48 h
LXFL 529 = test system: LXFL 529
HOP-92 = test system: HOP-92
RXF 393 = test system: RXF 393
COLO 205 = test system: COLO 205
A549 = test system: A549
HT-29 = test system: HT-29
MOLT-4 = test system: MOLT-4
NCI-H23 = test system: NCI-H23
NCI-H460 = test system: NCI-H460
RPMI-8226 = test system: RPMI-8226
NCI-H522 = test system: NCI-H522
HCT-15 = test system: HCT-15
M14 = test system: M14
SF-539 = test system: SF-539
A498 = test system: A498
HL-60 = test system: HL-60
HOP-62 = test system: HOP-62
TK-10 = test system: TK-10
M19-MEL = test system: M19-MEL
SNB-19 = test system: SNB-19
SK-MEL-5 = test system: SK-MEL-5
OVCAR-3 = test system: OVCAR-3
CCRF-CEM = test system: CCRF-CEM
DMS-114 = test system: DMS-114
OVCAR-5 = test system: OVCAR-5
SW-620 = test system: SW-620
SNB-78 = test system: SNB-78
KM12 = test system: KM12
UACC-257 = test system: UACC-257
HCC 2998 = test system: HCC 2998
U-251 = test system: U-251
SF-268 = test system: SF-268
786-0 = test system: 786-0
SN12C = test system: SN12C
XF498 = test system: XF498
LOX IMVI = test system: LOX IMVI
IGROV-1 = test system: IGROV-1
Malme-3M = test system: Malme-3M
SK-MEL-2 = test system: SK-MEL-2
EKVX = test system: EKVX
UACC-62 = test system: UACC-62
DLD-1 = test system: DLD-1
OVCAR-4 = test system: OVCAR-4
KM-20L2 = test system: KM-20L2
SK-MEL-28 = test system: SK-MEL-28
ACHN = test system: ACHN
CAKI-1 = test system: CAKI-1
HCT-116 = test system: HCT-116
OVCAR-8 = test system: OVCAR-8
SK-OV-3 = test system: SK-OV-3
NCI-H226 = test system: NCI-H226
UO-31 = test system: UO-31
SF-295 = test system: SF-295
K562 = test system: K562
SNB-75 = test system: SNB-75
DMS-273 = test system: DMS-273
SR = test system: SR

Structure (SMILES): CC1=NN(C(=O)Cc2ccccc2)C(=O)/C1=C\c1ccccc1O
- GI50 (LXFL 529): > 100 µM (inactive)
- GI50 (HOP-92): > 100 µM (inactive)
- GI50 (RXF 393): > 100 µM (inactive)
- GI50 (COLO 205): > 100 µM (inactive)
- GI50 (A549): > 100 µM (inactive)
- GI50 (HT-29): > 100 µM (inactive)
- GI50 (MOLT-4): > 100 µM (inactive)
- GI50 (NCI-H23): > 100 µM (inactive)
- GI50 (NCI-H460): > 100 µM (inactive)
- GI50 (RPMI-8226): > 100 µM (inactive)
- GI50 (NCI-H522): > 100 µM (inactive)
- GI50 (HCT-15): > 100 µM
- GI50 (M14): > 100 µM (inactive)
- GI50 (SF-539): > 100 µM (inactive)
- GI50 (A498): > 100 µM (inactive)
- GI50 (HL-60): > 100 µM (inactive)
- GI50 (HOP-62): > 100 µM (inactive)
- GI50 (TK-10): > 100 µM (inactive)
- GI50 (M19-MEL): > 100 µM (inactive)
- GI50 (SNB-19): > 100 µM (inactive)
- GI50 (SK-MEL-5): > 100 µM (inactive)
- GI50 (OVCAR-3): > 100 µM (inactive)
- GI50 (CCRF-CEM): > 100 µM (inactive)
- GI50 (DMS-114): > 100 µM (inactive)
- GI50 (OVCAR-5): > 100 µM (inactive)
- GI50 (SW-620): > 100 µM (inactive)
- GI50 (SNB-78): > 100 µM (inactive)
- GI50 (KM12): > 100 µM (inactive)
- GI50 (UACC-257): > 100 µM (inactive)
- GI50 (HCC 2998): > 100 µM (inactive)
- GI50 (U-251): > 100 µM (inactive)
- GI50 (SF-268): > 100 µM (inactive)
- GI50 (786-0): > 100 µM (inactive)
- GI50 (SN12C): > 100 µM (inactive)
- GI50 (XF498): > 100 µM (inactive)
- GI50 (LOX IMVI): > 100 µM (inactive)
- GI50 (IGROV-1): > 100 µM (inactive)
- GI50 (Malme-3M): > 100 µM (inactive)
- GI50 (SK-MEL-2): > 100 µM (inactive)
- GI50 (EKVX): > 100 µM (inactive)
- GI50 (UACC-62): > 100 µM (inactive)
- GI50 (DLD-1): > 100 µM (inactive)
- GI50 (OVCAR-4): > 100 µM (inactive)
- GI50 (KM-20L2): > 100 µM (inactive)
- GI50 (SK-MEL-28): > 100 µM (inactive)
- GI50 (ACHN): > 100 µM (inactive)
- GI50 (CAKI-1): > 100 µM (inactive)
- GI50 (HCT-116): > 100 µM (inactive)
- GI50 (OVCAR-8): > 100 µM (inactive)
- GI50 (SK-OV-3): > 100 µM (inactive)
- GI50 (NCI-H226): > 100 µM (inactive)
- GI50 (UO-31): > 100 µM (inactive)
- GI50 (SF-295): > 100 µM (inactive)
- GI50 (K562): > 100 µM (inactive)

Structure (SMILES): CN1c2ccccc2N(C(=O)c2ccc(Cl)cc2)C(CC(=O)O)c2cccn21 (centres undefined)
- GI50 (LXFL 529): > 100 µM (inactive)
- GI50 (HOP-92): > 100 µM (inactive)
- GI50 (RXF 393): > 100 µM (inactive)
- GI50 (COLO 205): > 100 µM (inactive)
- GI50 (A549): > 100 µM (inactive)
- GI50 (HT-29): > 100 µM (inactive)
- GI50 (MOLT-4): > 100 µM (inactive)
- GI50 (NCI-H23): > 100 µM (inactive)
- GI50 (NCI-H460): > 100 µM (inactive)
- GI50 (RPMI-8226): > 100 µM (inactive)
- GI50 (NCI-H522): > 100 µM (inactive)
- GI50 (HCT-15): > 100 µM
- GI50 (M14): > 100 µM (inactive)
- GI50 (SF-539): > 100 µM (inactive)
- GI50 (A498): > 100 µM (inactive)
- GI50 (HL-60): > 100 µM (inactive)
- GI50 (HOP-62): > 100 µM (inactive)
- GI50 (TK-10): > 100 µM (inactive)
- GI50 (M19-MEL): > 100 µM (inactive)
- GI50 (SNB-19): > 100 µM (inactive)
- GI50 (SK-MEL-5): > 100 µM (inactive)
- GI50 (OVCAR-3): > 100 µM (inactive)
- GI50 (CCRF-CEM): > 100 µM (inactive)
- GI50 (DMS-114): > 100 µM (inactive)
- GI50 (OVCAR-5): > 100 µM (inactive)
- GI50 (SW-620): > 100 µM (inactive)
- GI50 (SNB-78): > 100 µM (inactive)
- GI50 (KM12): > 100 µM (inactive)
- GI50 (UACC-257): > 100 µM (inactive)
- GI50 (HCC 2998): > 100 µM (inactive)
- GI50 (SF-268): > 100 µM (inactive)
- GI50 (786-0): > 100 µM (inactive)
- GI50 (SN12C): > 100 µM (inactive)
- GI50 (XF498): > 100 µM (inactive)
- GI50 (LOX IMVI): > 100 µM (inactive)
- GI50 (IGROV-1): > 100 µM (inactive)
- GI50 (Malme-3M): > 100 µM (inactive)
- GI50 (SK-MEL-2): > 100 µM (inactive)
- GI50 (EKVX): > 100 µM (inactive)
- GI50 (UACC-62): > 100 µM (inactive)
- GI50 (DLD-1): > 100 µM (inactive)
- GI50 (SNB-75): > 100 µM (inactive)
- GI50 (OVCAR-4): > 100 µM (inactive)
- GI50 (KM-20L2): > 100 µM (inactive)
- GI50 (SK-MEL-28): > 100 µM (inactive)
- GI50 (ACHN): > 100 µM (inactive)
- GI50 (CAKI-1): > 100 µM (inactive)
- GI50 (DMS-273): > 100 µM (inactive)
- GI50 (OVCAR-8): > 100 µM (inactive)
- GI50 (SK-OV-3): > 100 µM (inactive)
- GI50 (NCI-H226): > 100 µM (inactive)
- GI50 (UO-31): > 100 µM (inactive)
- GI50 (SF-295): > 100 µM (inactive)
- GI50 (K562): > 100 µM (inactive)

Structure (SMILES): O=c1nc(/C=C/c2ccccc2Cl)cc2n1CCN2CCO
- GI50 (LXFL 529): 55.1 µM (inactive)
- GI50 (HOP-92): > 100 µM (inactive)
- GI50 (RXF 393): 95.1 µM (inactive)
- GI50 (COLO 205): > 100 µM (inactive)
- GI50 (HT-29): > 100 µM (inactive)
- GI50 (MOLT-4): 75.9 µM (inactive)
- GI50 (NCI-H460): > 100 µM (inactive)
- GI50 (RPMI-8226): > 100 µM (inactive)
- GI50 (NCI-H522): 24.3 µM (inactive)
- GI50 (HCT-15): > 100 µM
- GI50 (M14): > 100 µM (inactive)
- GI50 (SF-539): > 100 µM (inactive)
- GI50 (HL-60): > 100 µM (inactive)
- GI50 (HOP-62): > 100 µM (inactive)
- GI50 (TK-10): > 100 µM (inactive)
- GI50 (M19-MEL): > 100 µM (inactive)
- GI50 (SNB-19): < 0.01 µM (active)
- GI50 (OVCAR-3): 28.6 µM (inactive)
- GI50 (CCRF-CEM): 50.4 µM (inactive)
- GI50 (DMS-114): 24.8 µM (inactive)
- GI50 (OVCAR-5): > 100 µM (inactive)
- GI50 (SR): 50.1 µM (inactive)
- GI50 (SW-620): > 100 µM (inactive)
- GI50 (KM12): 59.4 µM (inactive)
- GI50 (SF-268): 67.6 µM (inactive)
- GI50 (786-0): > 100 µM (inactive)
- GI50 (SN12C): > 100 µM (inactive)
- GI50 (LOX IMVI): > 100 µM (inactive)
- GI50 (IGROV-1): > 100 µM (inactive)
- GI50 (Malme-3M): > 100 µM (inactive)
- GI50 (SK-MEL-2): 72.3 µM (inactive)
- GI50 (EKVX): > 100 µM (inactive)
- GI50 (UACC-62): > 100 µM (inactive)
- GI50 (DLD-1): > 100 µM (inactive)
- GI50 (SNB-75): 26.3 µM (inactive)
- GI50 (OVCAR-4): 80.2 µM (inactive)
- GI50 (SK-MEL-28): > 100 µM (inactive)
- GI50 (ACHN): > 100 µM (inactive)
- GI50 (CAKI-1): > 100 µM (inactive)
- GI50 (HCT-116): > 100 µM (inactive)
- GI50 (OVCAR-8): > 100 µM (inactive)
- GI50 (SK-OV-3): 43.8 µM (inactive)
- GI50 (NCI-H226): 97.9 µM (inactive)
- GI50 (UO-31): > 100 µM (inactive)
- GI50 (SF-295): > 100 µM (inactive)
- GI50 (K562): 90.2 µM (inactive)
